Experimental data published in ChEMBL document CHEMBL1137319, “Thyroid receptor ligands. 6. A high affinity "direct antagonist" selective for the thyroid hormone receptor” (J Med Chem, 2006).

Columns and labels:
Rattus norvegicus [1] = experiment: Increase in LDL cholesterol level in orally dosed cholesterol-fed Sprague-Dawley rat relative to control; assay type: functional
[2] = target: T1, Thyroid hormone receptor beta (Homo sapiens, UniProt P10828); experiment: Activity at human TR-beta-1 transfected in CHO K1 cells by alkaline phosphatase reporter gene assay
T1 sequence (P10828 whole entry): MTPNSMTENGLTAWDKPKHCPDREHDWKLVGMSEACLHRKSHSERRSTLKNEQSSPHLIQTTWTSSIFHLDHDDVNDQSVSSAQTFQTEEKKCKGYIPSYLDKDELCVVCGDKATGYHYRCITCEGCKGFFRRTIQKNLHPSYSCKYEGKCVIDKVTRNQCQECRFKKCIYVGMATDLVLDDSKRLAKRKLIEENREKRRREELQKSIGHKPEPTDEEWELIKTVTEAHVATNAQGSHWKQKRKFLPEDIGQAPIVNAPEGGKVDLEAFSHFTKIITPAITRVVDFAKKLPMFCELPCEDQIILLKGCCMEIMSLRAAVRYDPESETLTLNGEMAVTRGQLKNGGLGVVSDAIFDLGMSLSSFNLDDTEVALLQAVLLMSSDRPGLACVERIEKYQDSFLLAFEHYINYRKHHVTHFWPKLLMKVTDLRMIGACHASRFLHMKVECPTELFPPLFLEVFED

Rattus norvegicus [3] = experiment: Decrease in heart rate in orally dosed cholesterol-fed Sprague-Dawley rat relative to control; assay type: functional; set-up: scale not given: the % may be the effect or the level left
[4] = target: T1, Thyroid hormone receptor beta; experiment: Binding affinity to human TRbeta1
[5] = target: T2, Thyroid hormone receptor alpha (Homo sapiens, UniProt P10827); experiment: Binding affinity to human TRalpha1
T2 sequence (P10827 whole entry): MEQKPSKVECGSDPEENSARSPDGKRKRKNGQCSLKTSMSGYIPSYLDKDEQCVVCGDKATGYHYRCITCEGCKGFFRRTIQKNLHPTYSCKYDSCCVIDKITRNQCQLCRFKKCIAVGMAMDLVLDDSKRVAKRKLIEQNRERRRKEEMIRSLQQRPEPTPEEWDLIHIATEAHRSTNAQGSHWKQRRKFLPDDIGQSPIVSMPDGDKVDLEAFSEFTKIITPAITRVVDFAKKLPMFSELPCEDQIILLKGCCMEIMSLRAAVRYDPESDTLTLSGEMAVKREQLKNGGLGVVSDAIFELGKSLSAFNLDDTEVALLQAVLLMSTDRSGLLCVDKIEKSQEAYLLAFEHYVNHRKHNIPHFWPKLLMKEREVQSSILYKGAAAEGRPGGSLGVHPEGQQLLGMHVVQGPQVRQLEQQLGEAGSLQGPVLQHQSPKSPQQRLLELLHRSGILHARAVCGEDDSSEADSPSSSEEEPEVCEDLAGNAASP

[6] = target: T2, Thyroid hormone receptor alpha; experiment: Activity at human TR-alpha-1 transfected in CHO K1 cells by alkaline phosphatase reporter gene assay

What does the source list for `CC(C)c1cc(Oc2c(Br)cc(CCC(=O)O)cc2Br)cc(/C=C/c2ccncc2)c1O`?
Activity (Rattus norvegicus [1]): 13%; IC50 [2]: 32 nM; Activity (Rattus norvegicus [3]): -10%; IC50 [4]: 22 nM; IC50 [5]: 36 nM; IC50 [6]: 32 nM

Which IC50 [4] does the source give for `O=C(O)CCc1ccccc1OCC1C(Br)CCCC1Br` (stereo not drawn) here?
The IC50 was 190 nM.

What about the IC50 [5] of the same compound?
Its IC50 is 460 nM.
